Measurements from patent US6423887B1, “Glyphosate tolerant fescue grass variety” (Pure Seed Testing, Inc., priority 2001, dated 2002).

Key:
Format in all cases: in vivo, Festuca arundinacea
5HU tall fescue = assay: Glyphosate tolerance field trial, turf seeded fall 1998 near Hubbard, Oreg.; conditions: for Herbicide damage: scale 1-9, 9=no glyphosate damage; for Summer Stress: scale 1-9; for Turf quality (no herbicide): scale 1-9, 9=ideal quality
Procedure: (§1) The following tables show examples of field trials in which the glyphosate resistance characteristics of the Tomahawk RT variety were examined and compared to currently used tall fescue grass varieties. Grasses were seeded in the fall of 1998 near Hubbard, Oreg. and rated between November 1998 and September 1999.
(§2) 2, 1999. The score ratings are based on a scale of 1 to 9. For herbicide damage: 9 =no glyphosate damage; 8-7=10-20% yellowing; 6-5=30-40% yellowing with minor growth retardation; 4-3=50-60% yellowing with growth retardation; 2-1=70-90% yellowing with dead turf. For turf quality: 9=best turf quality, 0=dead turf.
(§3) Grasses were sprayed with 1 pint per acre glyphosate on Nov. 19, 1998 and ½ pint (8 oz.) per acre on Mar. 2, 1999. The effect of the herbicide application on turf quality and on glyphosate damage is shown, using a scale of 1 to 9 as described for Table 3 (9: ideal quality; no disease; no glyphosate damage). In addition, the percent of damage due to herbicide application (which indicates yellowing, stunting, and death) is shown.

Tar Heel tall fescue = assay: as above; conditions: for Herbicide damage: scale 1-9, 9=no glyphosate damage; for Summer Stress: scale 1-9; for Turf quality (no herbicide): scale 1-9, 9=ideal quality
Procedure: as §1, §2, §3

Kentucky 31 tall fescue = assay: as above; conditions: for Herbicide damage: scale 1-9, 9=no glyphosate damage; for Summer Stress: scale 1-9; for Turf quality (no herbicide): scale 1-9, 9=ideal quality
Procedure: as §1, §2, §3

Wolfpack tall fescue = assay: as above; conditions: for Herbicide damage: scale 1-9, 9=no glyphosate damage; for Summer Stress: scale 1-9; for Turf quality (no herbicide): scale 1-9, 9=ideal quality
Procedure: as §1, §2, §3

Tomahawk E tall fescue = assay: as above; conditions: for Herbicide damage: scale 1-9, 9=no glyphosate damage; for Summer Stress: scale 1-9; for Turf quality (no herbicide): scale 1-9, 9=ideal quality
Procedure: as §1, §2, §3

Tomahawk RT tall fescue = assay: as above; conditions: for Herbicide damage: scale 1-9, 9=no glyphosate damage; for Summer Stress: scale 1-9; for Turf quality (no herbicide): scale 1-9, 9=ideal quality
Procedure: as §1, §2, §3

Pure Gold tall fescue = assay: as above; conditions: for Herbicide damage: scale 1-9, 9=no glyphosate damage; for Summer Stress: scale 1-9; for Turf quality (no herbicide): scale 1-9, 9=ideal quality
Procedure: as §1, §2, §3

[1] = test system: cloned survivors from Coronado, Apache II and Tomahawk; assay: Glyphosate screening of vegetative clones in cell pack planting flats; conditions: 1 quart per acre glyphosate with WA-100, clones in cell pack planting flats, sprayed 1 month after cloning
[2] = test system: seedlings, progenies of the 23 5RU clones; assay: Greenhouse glyphosate screening of seedlings; conditions: one quart per acre, sprayed at the three to four leaf stage, 74 out of 150
[3] = 1/2 pint (8 oz.) per acre sprayed Mar. 2, 1999, rated 1 April
[4] = 1/2 pint (8 oz.) per acre sprayed Mar. 2, 1999, rated 20 April
[5] = 1/2 pint (8 oz.) per acre sprayed Mar. 2, 1999, rated 24 Sept
[6] = 1 pint per acre Nov. 19, 1998 and 1/2 pint per acre Mar. 2, 1999, rated 1 Apr
[7] = 1 pint per acre Nov. 19, 1998 and 1/2 pint per acre Mar. 2, 1999, rated 1 May
[8] = 1 pint per acre Nov. 19, 1998 and 1/2 pint per acre Mar. 2, 1999, rated 20 Apr
[9] = 1 pint per acre Nov. 19, 1998 and 1/2 pint per acre Mar. 2, 1999, rated 24 Sept
[10] = 1 pint per acre sprayed Nov. 19, 1998, rated 2 Mar
[11] = 1 pint per acre sprayed Nov. 19, 1998, rated 26 Dec, % damage (yellowing, stunting, death)
[12] = 1 pint per acre sprayed Nov. 19, 1998, rated 26 Jan
[13] = 1/2 pint per acre of glyphosate herbicide (41% w/v glyphosate), field, January through September 1999
[14] = 1 pint per acre of agricultural formulation (about 0.056 g per square meter glyphosate)

O=C(O)CNCP(=O)(O)O [Glyphosate, N-(phosphonomethyl) glycine]
Herbicide damage (5HU tall fescue; [3]): 5.3
Herbicide damage (5HU tall fescue; [4]): 4.5
Summer Stress (5HU tall fescue; [5]): 6.3
Herbicide damage % (5HU tall fescue; [6]): 33.8%
Turf quality (no herbicide) (5HU tall fescue; [6]): 2.8
Turf quality (no herbicide) (5HU tall fescue; [7]): 4.8
Turf quality (no herbicide) (5HU tall fescue; [8]): 3.8
Summer Stress (5HU tall fescue; [9]): 7.0
Herbicide damage (5HU tall fescue; [10]): 3.5
Herbicide damage % (5HU tall fescue; [11]): 45.0%
Turf quality (no herbicide) (5HU tall fescue; [12]): 3.3
Herbicide damage (5HU tall fescue; [12]): 3.8
Herbicide damage (Tar Heel tall fescue; [3]): 5.0
Herbicide damage (Tar Heel tall fescue; [4]): 5.0
Summer Stress (Tar Heel tall fescue; [5]): 7.0
Herbicide damage % (Tar Heel tall fescue; [6]): 40.0%
Turf quality (no herbicide) (Tar Heel tall fescue; [6]): 3.0
Turf quality (no herbicide) (Tar Heel tall fescue; [7]): 5.0
Turf quality (no herbicide) (Tar Heel tall fescue; [8]): 4.0
Summer Stress (Tar Heel tall fescue; [9]): 7.5
Herbicide damage (Tar Heel tall fescue; [10]): 3.3
Herbicide damage % (Tar Heel tall fescue; [11]): 76.3%
Turf quality (no herbicide) (Tar Heel tall fescue; [12]): 2.0
Herbicide damage (Tar Heel tall fescue; [12]): 2.3
Herbicide damage (Kentucky 31 tall fescue; [3]): 3.3
Herbicide damage (Kentucky 31 tall fescue; [4]): 3.8
Summer Stress (Kentucky 31 tall fescue; [5]): 4.5
Herbicide damage % (Kentucky 31 tall fescue; [6]): 33.8%
Turf quality (no herbicide) (Kentucky 31 tall fescue; [6]): 2.0
Turf quality (no herbicide) (Kentucky 31 tall fescue; [7]): 4.0
Turf quality (no herbicide) (Kentucky 31 tall fescue; [8]): 3.3
Summer Stress (Kentucky 31 tall fescue; [9]): 5.8
Herbicide damage (Kentucky 31 tall fescue; [10]): 2.8
Herbicide damage % (Kentucky 31 tall fescue; [11]): 75.0%
Turf quality (no herbicide) (Kentucky 31 tall fescue; [12]): 2.0
Herbicide damage (Kentucky 31 tall fescue; [12]): 2.0
Herbicide damage (Wolfpack tall fescue; [3]): 4.0
Herbicide damage (Wolfpack tall fescue; [4]): 2.8
Summer Stress (Wolfpack tall fescue; [5]): 5.5
Herbicide damage % (Wolfpack tall fescue; [6]): 41.3%
Turf quality (no herbicide) (Wolfpack tall fescue; [6]): 3.3
Turf quality (no herbicide) (Wolfpack tall fescue; [7]): 4.8
Turf quality (no herbicide) (Wolfpack tall fescue; [8]): 4.5
Summer Stress (Wolfpack tall fescue; [9]): 7.8
Herbicide damage (Wolfpack tall fescue; [10]): 3.3
Herbicide damage % (Wolfpack tall fescue; [11]): 52.5%
Turf quality (no herbicide) (Wolfpack tall fescue; [12]): 3.5
Herbicide damage (Wolfpack tall fescue; [12]): 3.3
Herbicide damage (Tomahawk E tall fescue; [3]): 4.3
Herbicide damage (Tomahawk E tall fescue; [4]): 3.8
Summer Stress (Tomahawk E tall fescue; [5]): 6.3
Herbicide damage % (Tomahawk E tall fescue; [6]): 36.3%
Turf quality (no herbicide) (Tomahawk E tall fescue; [6]): 2.8
Turf quality (no herbicide) (Tomahawk E tall fescue; [7]): 4.5
Turf quality (no herbicide) (Tomahawk E tall fescue; [8]): 3.5
Summer Stress (Tomahawk E tall fescue; [9]): 7.3
Herbicide damage (Tomahawk E tall fescue; [10]): 2.3
Herbicide damage % (Tomahawk E tall fescue; [11]): 65.0%
Turf quality (no herbicide) (Tomahawk E tall fescue; [12]): 2.8
Herbicide damage (Tomahawk E tall fescue; [12]): 2.5
Herbicide damage (Tomahawk RT tall fescue; [3]): 7.5
Herbicide damage (Tomahawk RT tall fescue; [4]): 7.3
Summer Stress (Tomahawk RT tall fescue; [5]): 6.5
reduction in growth rate (Tomahawk RT tall fescue; [13]): no substantial reduction in growth rate
yellowing of the grass (Tomahawk RT tall fescue; [13]): only minor amounts of yellowing
Herbicide damage % (Tomahawk RT tall fescue; [6]): 72.5%
Turf quality (no herbicide) (Tomahawk RT tall fescue; [6]): 6.3
Turf quality (no herbicide) (Tomahawk RT tall fescue; [7]): 6.5
Turf quality (no herbicide) (Tomahawk RT tall fescue; [8]): 6.0
Summer Stress (Tomahawk RT tall fescue; [9]): 7.8
recovery of grass plants not killed (Tomahawk RT tall fescue; [14]): complete recovery
yellowing and retardation of plant growth (Tomahawk RT tall fescue; [14]): more yellowing of the grasses and a substantial retardation of plant growth
Herbicide damage (Tomahawk RT tall fescue; [10]): 5.3
Herbicide damage % (Tomahawk RT tall fescue; [11]): 21.3%
Turf quality (no herbicide) (Tomahawk RT tall fescue; [12]): 4.3
Herbicide damage (Tomahawk RT tall fescue; [12]): 5.3
sensitivity to glyphosate herbicide applications (Tomahawk RT tall fescue; ambient temperature of the plants below about 32° C.): more sensitive
sensitivity to glyphosate (Tomahawk RT tall fescue; applied during the seedling stage, within the first 60-days of planting): more sensitive
tolerated application of agricultural formulations of glyphosate herbicide (Tomahawk RT tall fescue; depending on time of year, age of the plants and environmental conditions): up to 1 pint per acre
Herbicide damage (Pure Gold tall fescue; [3]): 5.3
Herbicide damage (Pure Gold tall fescue; [4]): 5.5
Summer Stress (Pure Gold tall fescue; [5]): 5.3
Herbicide damage % (Pure Gold tall fescue; [6]): 41.3%
Turf quality (no herbicide) (Pure Gold tall fescue; [6]): 3.8
Turf quality (no herbicide) (Pure Gold tall fescue; [7]): 4.8
Turf quality (no herbicide) (Pure Gold tall fescue; [8]): 3.8
Summer Stress (Pure Gold tall fescue; [9]): 7.3
Herbicide damage (Pure Gold tall fescue; [10]): 3.3
Herbicide damage % (Pure Gold tall fescue; [11]): 33.8%
Turf quality (no herbicide) (Pure Gold tall fescue; [12]): 3.5
Herbicide damage (Pure Gold tall fescue; [12]): 4.0
survivors [1]: 5%
seedlings survived [2]: 50%
